For assay [1], the system named is HMG-CoA reductase. The assay can be described thus: HMG-CoA reductase activity in Chinese hamster ovary (CHO-K1) cell culture, as mevalonate formed. In kind it is cell-based. The settings on record: CHO-K1 cells. As to the method:
The effect of 26-hydroxycholesterol on HMG-CoA reductase activity was determined using the procedures of Chang et al, J. Biol. Chem. 256:6304 (1981). Chinese hamster ovary cells, CHO-Kl cells (also referred to as wild type) were obtained from the American Type Culture Collection and grown in Falcon flasks on Ham's F-12 media containing 10% fetal calf serum. Approximately 21/2 days after cells were removed from the stock flask cultures and seeded into petri dishes (60 mm), each containing 0.03×10^6 cells, they were rinsed with phosphate-buffered saline (PBS) and then grown in F-12 media containing 10% delipidated fetal calf serum for 48 hours with one change of media. Following this, either fresh media (still with delipidated calf serum) or fresh media containing 0.14% DMSO alone or 26-hydroxycholesterol was added and the cells incubated for varying periods of time. Our final concentration of DMSO was less than Chang (0.14% vs. 0.3%) and comparison of HMG-CoA reductase activity at 5 hours with media not containing DMSO gives the same or slightly higher (not significant) values. Under these conditions, over 50% inhibition has been obtained using the 0.25 μM concentration of 26-hydroxycholesterol and incubating for 5 hours. Not only is the mean highly significant but none of the individual control flasks overlap with the individual flasks containing 26-hydroxycholesterol. Using a concentration 10 X greater (2.5 μM) of 25-hydroxycholesterol, Chang reported 80% inhibition at 5 hours. Table 1 below sets forth average results of this experiment when carried out on a single day. […] HMG-CoA reductase activity was determined using the double-label technique of Pitot et al, J. Lipid Res. 12:512 (1971) and the thin-layer separation of Shapiro et al, Anal. Biochem. 31:383 (1969). […] The mevalonlactone is separated by thin-layer chromatography and the ^14 C/^3 H ratio determined from which the total amount of ^14 C can be calculated (corrected for ^3 H recovered) and expressed per mg of cytosolic protein by the Lowry method.

The test system of assay [2] is HMG-CoA reductase. The settings on record: 2.5 μM, 5 hours; Chang et al, J. Biol. Chem. 256:6304 (1981); cited from earlier work.

The structures appear in SMILES notation.

As to `C[C@@H](CO)CCC[C@@H](C)[C@H]1CC[C@H]2[C@@H]3CC=C4C[C@@H](O)CC[C@]4(C)[C@H]3CC[C@]12C` [26-hydroxycholesterol], the “% Inhibition of HMG-CoA reductase activity” value in the assay with HMG-CoA reductase [1] (0.25 μM in 0.14% DMSO, 5 hours incubation, average of a single day) was determined as 65%. The “HmG Co-A Reductase Activity (as mevalonate formed)” value with HMG-CoA reductase [1] (0.25 μM in 0.14% DMSO, 5 hours incubation, DMSO control 0.048) was determined as 0.017 nMol/min/mg protein. The “inhibition of HMG-CoA reductase activity” value with HMG-CoA reductase [1] (0.25 μM, incubating for 5 hours) is recorded as “over 50%”.
In the case of `C[C@H](CCCC(C)(C)O)[C@H]1CC[C@H]2[C@@H]3CC=C4C[C@@H](O)CC[C@]4(C)[C@H]3CC[C@]12C` [25-hydroxycholesterol], the “inhibition of HMG-CoA reductase activity reported by Chang” value with HMG-CoA reductase [2] is on record as 80%.

The values are drawn from patent publication US4427668A, “26-Hydroxycholesterol and derivatives and analogs thereof in regulation of cholesterol accumulation in body tissue” (New York University, priority 1982, dated 1984).
